Experimental data reported in article PMC6207642, “Real Time Monitoring of NADPH Concentrations in Corynebacterium glutamicum and Escherichia coli via the Genetically Encoded Sensor mBFP” (Frontiers in Microbiology, 2018).

Columns and labels:
[1] = system: T1, mBFP; assay: photometric benzaldehyde reductase assay, Michaelis-Menten fit; format: biochemical, uncultured bacterium; details: phosphate buffer pH 8, 30 °C
T1 construct: no tag mentioned; codon-optimized gene (amplicon 780 bp) used only in cells

[2] = target: T1, mBFP; assay: thermal shift (SYPRO Orange), concentration dependence; format: binding, uncultured bacterium; details: NADPH 0-10 mM; 40 to 70 °C in 0.5 °C steps

Km ([1]; 12.5 mM benzaldehyde, NADPH 0.5-180 μM) [µM]	Kd [2] [µM]	SMILES	Km ([1]; 200 μM NADPH, benzaldehyde 0.5-12.5 mM) [µM]
41	640	NC(=O)C1=CN([C@@H]2O[C@H](COP(=O)(O)OP(=O)(O)OC[C@H]3O[C@@H](n4cnc5c(N)ncnc54)[C@H](OP(=O)(O)O)[C@@H]3O)[C@@H](O)[C@H]2O)C=CC1 [NADPH]	
		O=Cc1ccccc1 [benzaldehyde]	3100
